# Experimental data: paper PMC12499404, “Colloidal Interactions in Simulated Intestinal Fluids: Implications for Oral Drug Delivery at the Nanoscale” (Small Science, 2025)
# How the values were obtained:
# [1] = design: method as in PMID 20507160; conditions: cited from earlier work
# physchem = format: physicochemical; conditions: 37 °C, pH 6.5, fassif, thermodynamic from solid, apparent solubility
# Protocol: Excess powder (at least 2‐3 times the expected equilibrium solubility) was added to 10 mL preheated simulated intestinal fluids, and the dissolution was monitored until a plateau was reached. […] This is in line with previously reported observations.^[ [26], [27] ^] […] This is likely because of the neutral and more lipophilic properties of felodipine (Table 1), where it is expected to see a larger benefit of the solubilization properties of the formed micelles.
# The dissolution and apparent solubilities of two poorly water‐soluble drugs, indomethacin and felodipine, were determined in the simulated intestinal fluids using a MicroDISS Profiler (pION Inc Ltd, East Sussex, UK). In each experiment (n ≥ 3), excess powder (at least 2‐3 times) compared to the expected solubility value was added to 10 mL simulated intestinal fluid. The experiments were performed at 37 °C using a stirring rate of 150 rpm, while the samples were scanned by individual UV probes every 10–30 s. […] The concentrations were determined based on the area under the curve in second derivative spectra evaluated over a range of wavelengths. […] The hydrodynamic size of the simulated intestinal fluids and drugs dissolved in the different simulated intestinal fluids was determined using a Malvern Zetasizer Nano ZSP (Malvern Instruments, Worcestershire, UK) with single‐use disposable microcuvettes. […]
# [2] = cited from earlier work
solubility (physchem),Compound,LogP [1],Charge (pH 6.5) [1],CMC [2]
–,"COc1ccc2c(c1)c(CC(=O)O)c(C)n2C(=O)c1ccc(Cl)cc1 [Indomethacin, indomethacin]",3.51,−1,–
49.3 ± 1.9 µg/mL,"CCOC(=O)C1=C(C)NC(C)=C(C(=O)OC)C1c1cccc(Cl)c1Cl (stereo not drawn) [Felodipine, felodipine]",5.58,0,–
–,"C[C@H](CCC(=O)NCCS(=O)(=O)O)[C@H]1CC[C@H]2[C@@H]3[C@H](O)C[C@@H]4C[C@H](O)CC[C@]4(C)[C@H]3C[C@H](O)[C@]12C [Taurocholic acid, taurocholic acid]",–,–,3 to 8 mM
